Earlier results, collected in patent US20130143845A1, “VITAMIN D COMPOUNDS AND METHODS FOR ENHANCING MUSCLE STRENGTH, AND PREVENTION AND TREATMENT OF DISEASE IN HUMAN BEINGS” (priority 2011, published 2013).
Read-outs that look alike come from different tables or passages of the source.

Conditions: in circulation

Structure (SMILES): C=C1/C(=C\C=C2/CCC[C@]3(C)[C@@H]([C@H](C)CCCC(C)(C)O)CC[C@@H]23)C[C@@H](O)C[C@@H]1O [1,25(OH)2D3, 1α,25-dihydroxyvitamin D3]
- half-life of 1,25(OH)2D3 (prolonged by the invention (D3FACCPG), Lichtmann, personal communication): approximately 12 hours
- half-life of 1,25(OH)2D3 (without the invention (Holick, 2003)): approximately 4 hours
